Measurements: publication PMC7395068, “The evolution of strategies to minimise the risk of human drug-induced liver injury (DILI) in drug discovery and development” (Archives of Toxicology, 2020)
Like-named read-outs stand apart in the source and are kept apart here.

How the values were obtained:
[1] = Plasma free fraction (fu) and unbound Cmax (Cmax,u); assay type: in vitro ADME, human; settings: unbound plasma Cmax
Procedure: The prediction of DILI severity was evaluated further using the 3D combined HCI assays using plasma-free fraction. The majority of fu values were obtained from literature, when unavailable in-house prediction was utilised. Unbound plasma Cmax concentrations (Cmax,u) were derived by multiplying total plasma Cmax with the corresponding free fraction (fu) for each compound.

[2] = system: HepG2; parameters: method as in Albrecht 2019; settings: In vitro Assay; ref Albrecht 2019; cited from earlier work
[3] = cited from earlier work
[4] = system: HepG2 cells; settings: cited from earlier work; for Structural based (HCI): In vitro Assay, ref O'Brien 2006
[5] = system: THLE or HepG2 cells, isolated mitochondria, BSEP; settings: cited from earlier work; for Partition Hybrid HRM Score / Ro2 Hybrid HRM Score: In vitro Assay, ref Aleo 2019
[6] = system: PHH; settings: cited from earlier work
[7] = system: hLiMTs; settings: cited from earlier work
[8] = system: PHH spheroids; settings: cited from earlier work; for hLiMTs ATP <20 x Cmax: In vitro Assay, ref Vorrink 2018
[9] = read-out: Human plasma Cmax; total plasma Cmax.tot, median of 9 literature references; cited from earlier work
[10] = plasma free fraction; cited from earlier work
[11] = cited from earlier work; remark: listed apart in the source
[12] = system: PHH; settings: In vitro Assay; ref Albrecht 2019; cited from earlier work
[13] = system: hLiMTs; experiment: Combined HCI (HCS) and cellular ATP 3D assay in hLiMTs; settings: for AC50 / minimal effective concentration: Homo sapiens
[14] = system: HepaRG spheroids; experiment: Combined HCI (HCS) and cellular ATP 3D assay in HepaRG spheroids; settings: for AC50 / minimal effective concentration: Homo sapiens
[15] = system: human hepatocytes; settings: In vitro Assay; ref Xu 2008; cited from earlier work
[16] = system: HepG2 cells, primary human hepatocytes; settings: In vitro Assay; ref Garside 2014; cited from earlier work
[17] = ref Chen 2011; cited from earlier work
[18] = system: rBsep; settings: In vitro Assay; ref Dawson 2012; cited from earlier work
[19] = system: HepG2 cells; settings: In vitro Assay; ref Persson 2013; cited from earlier work
[20] = system: primary human hepatocytes, NIH3T3 fibroblasts, BSEP, CYP3A4; settings: In vitro Assay; ref Schadt 2015; cited from earlier work
[21] = system: THLE-Null and THLE-3A4 cells; settings: In vitro Assay; ref Gustafsson 2014; cited from earlier work
[22] = Modeled in vitro assays (cytotoxicity, mitochondrial dysfunction, BSEP), ref Aleo et al. 2019
[23] = In vitro Assay, ref Proctor 2017
[24] = Microtissue model structural based (HCI), combined HCS and ATP, MEC < 25 × Cmax.tot cut-off

CN(C)CCC(c1ccc(Cl)cc1)c1ccccn1 (stereo not shown) [chlorpheniramine]
Human plasma Cmax,u [1]: 101 nM | Cytotoxicity HepG2 48 hrs [2]: -VE | DILI severity category (Chen et al. [2016]) ([3]; LTKB DILIrank category, ref Chen et al. 2016): No | DILI severity category (Chen 2016) ([3]; human DILI classification, LTKB DILIrank, ref Chen et al. 2016): No | DILI severity category ([3]; human DILI severity, ref Chen et al.): No | DILI +VE (5-8), DILI -VE (-4) ([3]; ref Chen 2016): -VE | DILI severity category ([3]; ref Chen 2016): vNo-DILI-Concern | Structural based (HCI) [4]: +VE | DILI in vitro assay prediction, O'Brien (2006) ([4]; Structural based (HCI), HepG2, ref O'Brien et al. 2006): -VE | Partition Hybrid HRM Score [5]: -VE | Ro2 Hybrid HRM Score [5]: -VE | Partition Hybrid HRM Score ≥4, Aleo (2019) [5, 22]: -VE | Partition Hybrid HRM Score ≥8, Aleo (2019) [5, 22]: -VE | Rule of Two hybrid HRM Score ≥3, Aleo (2019) [5, 22]: -VE | Rule of Two hybrid HRM Score ≥8, Aleo (2019) [5, 22]: -VE | PHH/100uM, Proctor (2017) ([6]; 2D PHH, ATP, IC50 threshold 100 µM, ref Proctor et al. 2017): -VE | PHH ATP <100uM [6, 23]: -VE | hLiMTs ATP <100uM [7, 23]: +VE (IC50 threshold of 100 µM) | hLiMTs/100uM, Proctor (2017) ([7]; hLiMTs, ATP, IC50 threshold 100 µM, ref Proctor et al. 2017): +VE (IC50 threshold of 100 µM) | hLiMTs ATP <20 x Cmax [8]: -VE | DILI in vitro assay prediction, Vorrink (2018) ([8]; PHH spheroids, ATP, 14 days, IC20 < 20 × Cmax.tot, ref Vorrink et al. 2018): -VE | Cmax [9]: 366 nM | fu [10]: 0.277 | Assigned DILI category ([11]; Chen et al. 2016 or literature alignment, ref Chen et al. 2016): 1 | In vivo DILI ([11]; ref Albrecht 2019): -VE | In vivo DILI ([11]; ref Aleo 2019): -VE | In vivo DILI ([11]; ref O'Brien 2006): -VE | In vivo DILI ([11]; ref Proctor 2017): +VE | In vivo DILI ([11]; ref Vorrink 2018): -VE | In vivo DILI ([11]; ref Xu 2008): +VE | Cytotoxicity PHH 48 hrs [12]: -VE | AC50 ([13]; read-out: ATP endpoint AC50): 30.9 µM | minimal effective concentration ([13]; read-out: ATP endpoint MEC): 10.7 µM | AC50 ([13]; read-out: HCS endpoint AC50): 98.5 µM | minimal effective concentration ([13]; read-out: HCS endpoint MEC): 66.6 µM | DILI prediction hLiMTs (HCS-MEC) [13, 24]: -VE | hLiMTs <25x Avg Cmax ATP ([13]; hLiMTs, ATP endpoint, cut-off <25x Avg Cmax): -ve | hLiMTs <100x Avg Cmaxu ATP ([13]; hLiMTs, ATP endpoint, cut-off <100x Avg Cmaxu): -ve | hLiMTs <25x Avg Cmax HCS ([13]; hLiMTs, HCS endpoints, cut-off <25x Avg Cmax): -ve | hLiMTs <100x Avg Cmaxu HCS ([13]; hLiMTs, HCS endpoints, cut-off <100x Avg Cmaxu): -ve | hLiMTs <25x Avg Cmax All ([13]; hLiMTs, all endpoints (ATP and HCS), cut-off <25x Avg Cmax): -ve | hLiMTs Cmax max All ([13]; hLiMTs, all endpoints, Cmax max used): -ve | hLiMTs Cmax min All ([13]; hLiMTs, all endpoints, Cmax min used): -ve | hLiMTs <10 uM All ([13]; hLiMTs, all endpoints, cut-off <10 uM): -ve | hLiMTs <100x Avg Cmaxu All ([13]; hLiMTs, all endpoints, cut-off <100x Avg Cmaxu): -ve | HepaRG <25x Avg Cmax ATP ([14]; HepaRG, ATP endpoint, cut-off <25x Avg Cmax): -ve | HepaRG <100x Avg Cmaxu ATP ([14]; HepaRG, ATP endpoint, cut-off <100x Avg Cmaxu): -ve | HepaRG <25x Avg Cmax HCS ([14]; HepaRG, HCS endpoints, cut-off <25x Avg Cmax): -ve | HepaRG <100x Avg Cmaxu HCS ([14]; HepaRG, HCS endpoints, cut-off <100x Avg Cmaxu): -ve | HepaRG <25x Avg Cmax All ([14]; HepaRG, all endpoints (ATP and HCS), cut-off <25x Avg Cmax): -ve | HepaRG Cmax max All ([14]; HepaRG, all endpoints, Cmax max used): -ve | HepaRG Cmax min All ([14]; HepaRG, all endpoints, Cmax min used): -ve | HepaRG <10 uM All ([14]; HepaRG, all endpoints, cut-off <10 uM): -ve | HepaRG <100x Avg Cmaxu All ([14]; HepaRG, all endpoints, cut-off <100x Avg Cmaxu): -ve | AC50 ([14]; HepaRG, read-out: ATP endpoint AC50): 129 µM | minimal effective concentration ([14]; HepaRG, read-out: ATP endpoint MEC): 120 µM | AC50 ([14]; HepaRG, read-out: HCS endpoint AC50): 119 µM | minimal effective concentration ([14]; HepaRG, read-out: HCS endpoint MEC): 14.3 µM | DILI prediction HepaRG spheroids (HCS-MEC) [14, 24]: -VE

NC(N)=Nc1nc(CSCCC(N)=NS(N)(=O)=O)cs1 [famotidine]
Cytotoxicity HepG2 48 hrs [2]: -VE | DILI +VE (5-8), DILI -VE (-4) ([3]; ref Chen 2016): +VE | DILI severity category ([3]; ref Chen 2016): vLess-DILI-Concern | Structural based (HCI) [4]: +VE | Structural based (HCI) [15]: -VE | In vivo DILI ([11]; ref Albrecht 2019): -VE | In vivo DILI ([11]; ref Dawson 2012): +VE | In vivo DILI ([11]; ref Garside 2014): +VE | In vivo DILI ([11]; ref O'Brien 2006): +VE | In vivo DILI ([11]; ref Xu 2008): -VE | Cytotoxicity PHH 48 hrs [12]: -VE | Cluster 1-6 +VE Assay [16]: -VE | DILI Score (FDA) (1-8) [17]: 3 | Inhibition of rBsep cutoff<1& cmax u>.2 [18]: -VE | Inhibition of rBsep cutoff<3 [18]: -VE

CC(CCc1ccccc1)NCC(O)c1ccc(O)c(C(N)=O)c1 (stereo not shown) [labetalol]
Cytotoxicity HepG2 48 hrs [2]: +VE | DILI +VE (5-8), DILI -VE (-4) ([3]; ref Chen 2016): +VE | DILI severity category ([3]; ref Chen 2016): vMost-DILI-Concern | Structural based (HCI) [4]: +VE | Cluser analysis [19]: -VE | Structural based (HCI) [19]: -VE | Structural based (HCI) [15]: +VE | hLiMTs ATP <20 x Cmax [8]: -VE | In vivo DILI ([11]; […]): +VE | In vivo DILI ([11]; ref Albrecht 2019): +VE | In vivo DILI ([11]; ref Aleo 2019): +VE | In vivo DILI ([11]; ref Garside 2014): +VE | In vivo DILI ([11]; ref O'Brien 2006): +VE | In vivo DILI ([11]; ref Persson 2013): +VE | In vivo DILI ([11]; ref Vorrink 2018): +VE | In vivo DILI ([11]; ref Xu 2008): +VE | Cytotoxicity PHH 48 hrs [12]: +VE | Cluster 1-6 +VE Assay [16]: +VE | DILI Score (FDA) (1-8) [17]: 8

Cc1oncc1C(=O)Nc1ccc(C(F)(F)F)cc1 [leflunomide]
Cytotoxicity HepG2 48 hrs [2]: +VE | DILI +VE (5-8), DILI -VE (-4) ([3]; ref Chen 2016): +VE | DILI severity category ([3]; ref Chen 2016): vMost-DILI-Concern | Cellular toxicity (3T3 cells) [20]: -VE | Combined Assay [20]: -VE | GSH adduct HML [20]: +VE | Hepatocyte cellular toxicity [20]: -VE | MitoTox 3T3 [20]: -VE | TDI CYP3A4 [20]: -VE | hBSEP inhibition [20]: -VE | Structural based (HCI) [4]: +VE | Structural based (HCI) [15]: -VE | Partition Hybrid HRM Score [5]: +VE | Ro2 Hybrid HRM Score [5]: +VE | In vivo DILI ([11]; ref Albrecht 2019): +VE | In vivo DILI ([11]; ref Aleo 2019): +VE | In vivo DILI ([11]; ref Dawson 2012): +VE | In vivo DILI ([11]; ref Garside 2014): +VE | In vivo DILI ([11]; ref Gustafsson 2014): +VE | In vivo DILI ([11]; ref O'Brien 2006): +VE | In vivo DILI ([11]; ref Schadt 2015): +VE | In vivo DILI ([11]; ref Xu 2008): +VE | Cytotoxicity PHH 48 hrs [12]: +VE | THLE-Null [21]: -VE | THLE-Null/3A4 [21]: -VE | Cluster 1-6 +VE Assay [16]: -VE | DILI Score (FDA) (1-8) [17]: 8 | Inhibition of rBsep cutoff<1& cmax u>.2 [18]: -VE | Inhibition of rBsep cutoff<3 [18]: +VE

Cc1ccnc2c1NC(=O)c1cccnc1N2C1CC1 [nevirapine]
Cytotoxicity HepG2 48 hrs [2]: +VE | DILI +VE (5-8), DILI -VE (-4) ([3]; ref Chen 2016): +VE | DILI severity category ([3]; ref Chen 2016): vMost-DILI-Concern | Cellular toxicity (3T3 cells) [20]: -VE | Combined Assay [20]: +VE | GSH adduct HML [20]: +VE | Hepatocyte cellular toxicity [20]: -VE | MitoTox 3T3 [20]: +VE | TDI CYP3A4 [20]: -VE | hBSEP inhibition [20]: -VE | Partition Hybrid HRM Score [5]: +VE | Ro2 Hybrid HRM Score [5]: -VE | In vivo DILI ([11]; […]): +VE | In vivo DILI ([11]; ref Albrecht 2019): +VE | In vivo DILI ([11]; ref Aleo 2019): +VE | In vivo DILI ([11]; ref Garside 2014): +VE | In vivo DILI ([11]; ref Schadt 2015): +VE | Cytotoxicity PHH 48 hrs [12]: +VE | Cluster 1-6 +VE Assay [16]: -VE | DILI Score (FDA) (1-8) [17]: 8
